Reference: ChEMBL document CHEMBL3853335, “Citrinovirin with a new norditerpene skeleton from the marine algicolous fungus Trichoderma citrinoviride” (Bioorg Med Chem Lett, 2016)
Converted amounts (≈) assume the structure as drawn.

Columns and labels:
[1] = system: Scrippsiella trochoidea; assay: Growth inhibition of Scrippsiella trochoidea at 100 ug/ml after 12 hrs by light microscopy; format: functional
[2] = system: Heterosigma akashiwo; assay: Growth inhibition of Heterosigma akashiwo at 100 ug/ml after 12 hrs by light microscopy; format: functional
[3] = system: Prorocentrum donghaiense; assay: Growth inhibition of Prorocentrum donghaiense at 100 ug/ml after 12 hrs by light microscopy; format: functional
[4] = system: Chattonella marina; assay: Growth inhibition of Chattonella marina at 100 ug/ml after 12 hrs by light microscopy; format: functional
[5] = system: Escherichia coli; assay: Antimicrobial activity against Escherichia coli after 24 hrs by agar diffusion method; format: functional
[6] = system: Staphylococcus aureus; assay: Antimicrobial activity against Staphylococcus aureus after 24 hrs by agar diffusion method; format: functional
[7] = Toxicity in Artemia salina assessed as lethality after 24 hrs
[8] = system: Colletotrichum lagenaria; assay: Antimicrobial activity against Colletotrichum lagenarium after 24 hrs by agar diffusion method; format: functional
[9] = system: Colletotrichum gloeosporioides; assay: Antimicrobial activity against Colletotrichum gloeosporioides after 24 hrs by agar diffusion method; format: functional

Compound	growth inhibition (GI) [1]	growth inhibition (GI) [3]	growth inhibition (GI) [4]	MIC [6]	other results
POTASSIUM DICHROMATE [listing 1 of 2 here]	71.9%	71.7%	74.4%	–	growth inhibition (GI) [2]: 78.4%
O=C(N[C@H](CO)[C@H](O)c1ccc([N+](=O)[O-])cc1)C(Cl)Cl [CHLORAMPHENICOL]	–	–	–	0.8 µg/mL (≈ 2.48 µM)	MIC [5]: 1.6 µg/mL (≈ 4.95 µM)
POTASSIUM DICHROMATE [listing 2 of 2 here]	–	–	–	–	LC50 ([7]; 24 h): 20.8 µg/mL
CCCC[C@@H](C)[C@@H]1[C@@H]2C=C[C@H]3[C@H](C)[C@@H](O)[C@@H](O)[C@@H]3[C@]1(C)OC2=O	-47.2%	14.1%	37.2%	12.4 µg/mL (≈ 38.5 µM)	LC50 at 24 h [7]: 65.6 µg/mL (≈ 203 µM); inhibition of growth at 100 µg/mL ([2]; read-out: GI): 23.4%
C[C@@H]1[C@H](O)[C@@H](C)/C=C/C=C/C=C/C=C/C=C/C=C/C=C/[C@H](O[C@@H]2O[C@H](C)[C@@H](O)[C@H](N)[C@@H]2O)C[C@@H]2O[C@](O)(C[C@@H](O)C[C@@H](O)[C@H](O)CC[C@@H](O)C[C@@H](O)CC(=O)O[C@H]1C)C[C@H](O)[C@H]2C(=O)O [AMPHOTERICIN B]	–	–	–	–	MIC [8]: 12.4 µg/mL (≈ 13.4 µM); MIC [9]: 12.4 µg/mL (≈ 13.4 µM)
